Source: patent publication US20090298878A1, “OXIME COMPOUNDS AND THE USE THEREOF” (priority 2006, published 2009)
Structures can show the parent of a compound that is named as a salt.

The compounds below were run against T1, N-type calcium channel (NTCC) (Homo sapiens, UniProt Q00975) (assay: FLIPR calcium mobilization assay for N-type calcium channel (differentiated IMR32 cells)). Conditions: about 1.0 μM or less; calcium mobilization and/or electrophysiological assay.
T1 construct: host or cells: IMR32 cells differentiated with dibutyryl cAMP and bromodeoxyuridine
Format: cell-based
Method: Cell maintenance and differentiation. Unless noted otherwise, cell culture reagents were purchased from Mediatech of Hemdon, Md. IMR32 cells (American Type Culture Collection, ATCC, Manassas, Va.) were routinely cultured in growth medium consisting of minimum essential medium containing 10% fetal bovine serum (FBS, Hyclone, Logan, Utah), 100 U/mL penicillin, 100 μg/mL streptomycin, 2 mM L-glutamine, 1 mM sodium pyruvate, and 1× MEM non-essential amino acids. 80-90% confluent flasks of cells were differentiated using the following differentiation medium: Growth medium plus 1 mM dibutyryl cyclic AMP (Sigma, St. Louis, Mo.), and 2.5 μM bromodeoxyuridine (Sigma). Cells were differentiated for 8 days by replacing differentiation medium every 2-3 days.
FLIPR Calcium Mobilization Assay for N-type Calcium Channel. One day prior to performing this assay, differentiated IMR32 cells were treated with 1× CellStripper, and seeded on poly-D-lysine-coated 96-well clear-bottom black plates (Becton Dickinson, Franklin Lakes, N.J.) at 200,000 cells/well. On the day of the assay, the cell plates were washed with IMR32 buffer (127 mM NaCl, 1 mM KCl, 2 mM MgCl2, 700 μM NaH2PO4, 5 mM CaCl2, 5 mM NaHCO3, 8 mM HEPES, 10 mM glucose, pH 7.4), then pre-stimulated with KCl and loaded as follows: 0.05 mL of IMR32 buffer, 0.05 mL of each compound tested diluted in IMR32 buffer containing 20 μM nitrendipine (Sigma), and 0.1 mL KCl dissolved in IMR32 buffer, plus Fluo-4 were added (3 μM final concentration, Molecular Probes, Eugene, Oreg.). Final test compound concentrations ranged from about 846 pM to about 17 μM, final nitrendipine concentration was 5 μM, and final KCl concentration was 90 mM. After 1 hour, the cells were washed twice with 0.05 mL of each compound tested in nitrendipine-containing IMR32 buffer (no KCl or Fluo-4), and then replaced with 0.1 mL of each compound tested in nitrendipine-containing IMR32 buffer. Plates were then transferred to a Fluorimetric imaging Plate Reader (FLIPR^96, Molecular Devices, Inc., Sunnyvale, Calif.) for assay. The FLIPR measured basal Fluo-4 fluorescence for 315 seconds (i.e., 5 minutes and 15 seconds), then added 0.1 mL KCl agonist dissolved in IMR32 buffer and measured fluorescence for another 45 seconds. Final test compound concentrations on the cells after FLIPR read ranged from about 846 pM to about 17 μM, final nitrendipine concentration was 5 μM, and final KCl concentration was 90 mM. Data were collected over the entire time course and analyzed using Excel, Graph Pad Prism (version 3.02, Graph Pad, San Diego, Calif.), or an in-house non-linear regression analysis software.

T1 sequence (Q00975 whole entry): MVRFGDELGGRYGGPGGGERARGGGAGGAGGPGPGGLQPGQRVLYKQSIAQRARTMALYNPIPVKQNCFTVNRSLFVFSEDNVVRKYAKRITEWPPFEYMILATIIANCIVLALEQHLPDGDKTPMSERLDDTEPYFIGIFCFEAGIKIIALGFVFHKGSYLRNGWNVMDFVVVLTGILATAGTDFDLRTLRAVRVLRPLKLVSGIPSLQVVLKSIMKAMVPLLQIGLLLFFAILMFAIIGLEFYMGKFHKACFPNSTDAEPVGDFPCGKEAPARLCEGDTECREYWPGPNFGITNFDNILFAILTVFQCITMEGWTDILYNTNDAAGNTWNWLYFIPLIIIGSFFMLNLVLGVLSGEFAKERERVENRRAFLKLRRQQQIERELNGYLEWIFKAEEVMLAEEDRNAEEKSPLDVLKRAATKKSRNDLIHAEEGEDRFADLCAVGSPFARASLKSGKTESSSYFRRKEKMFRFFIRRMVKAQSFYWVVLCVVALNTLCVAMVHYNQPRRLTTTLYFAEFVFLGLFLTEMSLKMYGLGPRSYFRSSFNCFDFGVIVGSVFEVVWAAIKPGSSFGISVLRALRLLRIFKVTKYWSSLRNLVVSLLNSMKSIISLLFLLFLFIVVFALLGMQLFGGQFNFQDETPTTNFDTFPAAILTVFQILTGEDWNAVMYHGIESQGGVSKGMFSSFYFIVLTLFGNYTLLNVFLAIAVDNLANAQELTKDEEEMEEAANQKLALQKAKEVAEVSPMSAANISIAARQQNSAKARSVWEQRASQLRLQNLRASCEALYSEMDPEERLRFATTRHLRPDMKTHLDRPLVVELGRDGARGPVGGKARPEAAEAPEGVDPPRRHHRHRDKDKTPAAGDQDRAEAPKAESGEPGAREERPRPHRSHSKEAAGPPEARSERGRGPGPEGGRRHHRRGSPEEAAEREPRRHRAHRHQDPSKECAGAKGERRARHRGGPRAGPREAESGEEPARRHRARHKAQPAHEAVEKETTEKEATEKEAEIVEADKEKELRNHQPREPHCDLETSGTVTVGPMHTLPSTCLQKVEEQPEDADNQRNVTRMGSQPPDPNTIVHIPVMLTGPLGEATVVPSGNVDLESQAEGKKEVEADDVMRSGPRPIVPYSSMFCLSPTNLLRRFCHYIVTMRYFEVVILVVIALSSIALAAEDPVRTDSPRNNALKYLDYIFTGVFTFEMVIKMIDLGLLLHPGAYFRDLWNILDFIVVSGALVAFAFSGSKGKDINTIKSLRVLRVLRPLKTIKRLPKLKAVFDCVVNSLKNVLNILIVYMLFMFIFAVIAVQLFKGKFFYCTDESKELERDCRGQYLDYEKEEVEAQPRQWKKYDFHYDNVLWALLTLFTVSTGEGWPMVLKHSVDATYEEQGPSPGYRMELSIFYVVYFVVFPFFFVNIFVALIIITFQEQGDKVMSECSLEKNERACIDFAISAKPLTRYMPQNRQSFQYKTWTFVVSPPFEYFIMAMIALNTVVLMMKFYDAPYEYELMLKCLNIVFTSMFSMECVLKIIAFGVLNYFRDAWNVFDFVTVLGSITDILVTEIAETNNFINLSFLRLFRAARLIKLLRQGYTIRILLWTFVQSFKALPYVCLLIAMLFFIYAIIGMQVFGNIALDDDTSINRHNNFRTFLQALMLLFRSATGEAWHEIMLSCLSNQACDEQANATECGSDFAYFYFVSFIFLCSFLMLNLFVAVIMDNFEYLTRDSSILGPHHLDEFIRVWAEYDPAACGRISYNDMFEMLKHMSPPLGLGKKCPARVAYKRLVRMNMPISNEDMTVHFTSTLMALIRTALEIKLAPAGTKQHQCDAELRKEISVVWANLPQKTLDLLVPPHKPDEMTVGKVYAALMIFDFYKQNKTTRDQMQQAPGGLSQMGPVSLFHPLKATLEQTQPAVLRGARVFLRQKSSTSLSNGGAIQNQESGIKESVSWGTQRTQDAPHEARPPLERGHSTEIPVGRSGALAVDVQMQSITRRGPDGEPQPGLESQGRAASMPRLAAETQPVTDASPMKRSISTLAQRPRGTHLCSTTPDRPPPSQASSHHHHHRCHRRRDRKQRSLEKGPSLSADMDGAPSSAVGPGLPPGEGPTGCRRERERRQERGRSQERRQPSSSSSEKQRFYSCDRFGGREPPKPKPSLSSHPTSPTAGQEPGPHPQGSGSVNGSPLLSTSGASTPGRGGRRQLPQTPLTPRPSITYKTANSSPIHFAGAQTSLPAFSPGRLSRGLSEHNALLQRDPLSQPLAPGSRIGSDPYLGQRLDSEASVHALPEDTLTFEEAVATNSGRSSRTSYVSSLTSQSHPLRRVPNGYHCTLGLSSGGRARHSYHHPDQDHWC

IC50	Compound
≤ 1000 nM	N#Cc1cccc(C(CN2CCOCC2)ON=C2CCN(S(=O)(=O)c3ccc(OC(F)(F)F)cc3)CC2)c1 (centres unmarked) [Example 302, 3-(2-Morpholino-1-(1-(4-(trifluoromethoxy)phenylsulfonyl)piperidin-4-ylideneaminooxy)ethyl)benzonitrile]
≤ 1000 nM	COCC(ON=C1CCN(S(=O)(=O)c2ccc(OC(F)(F)F)cc2)CC1)c1cccc(C#N)c1 (centres unmarked) [Example 273, 3-(2-Methoxy-1-(1-(4-(trifluoromethoxy)phenylsulfonyl)piperidin-4-ylideneaminooxy)ethyl)benzonitrile]
≤ 1000 nM	O=S(=O)(c1ccc(Cl)cc1Cl)N1CCC(=NOC(c2ccc(F)cc2)c2ccc(F)cc2)CC1 [Example 228, 1-(2,4-Dichlorophenylsulfonyl)piperidin-4-one O-bis(4-fluorophenyl)methyl oxime]
≤ 1000 nM	N#Cc1cccc(C(COc2ccc(F)cc2)ON=C2CCN(S(=O)(=O)c3ccc(OC(F)(F)F)cc3)CC2)c1 (centres unmarked) [Example 304, 3-(2-(4-Fluorophenoxy)-1-(1-(4-(trifluoromethoxy)phenylsulfonyl)piperidin-4-ylideneaminooxy)ethyl)benzonitrile]
≤ 1000 nM	N#Cc1cccc(C(ON=C2CCN(S(=O)(=O)c3ccc(OC(F)(F)F)cc3)CC2)c2cccnc2)c1 (centres unmarked) [Example 270, 3-(Pyridin-3-yl(1-(4-(trifluoromethoxy)phenylsulfonyl)piperidin-4-ylideneaminooxy)methyl)benzonitrile]
≤ 1000 nM	O=S(=O)(c1cccc(C(F)(F)F)c1)N1CCC(=NOCCC2CCCCC2)CC1 [Example 294, 1-(3-(Trifluoromethyl)phenylsulfonyl)piperidin-4-one O-2-cyclohexylethyl oxime]
≤ 1000 nM	N#Cc1cccc(CON=C2CCN(S(=O)(=O)c3ccc(OCCF)cc3)CC2)c1 [Example 281, 3-((1-(4-(2-Fluoroethoxy)phenylsulfonyl)piperidin-4-ylideneaminooxy)methyl)benzonitrile]
≤ 1000 nM	O=S(=O)(c1ccccc1OC(F)(F)F)N1CCC(=NOC(c2ccc(F)cc2)c2ccc(F)cc2)CC1 [Example 289, 1-(2-(Trifluoromethoxy)phenylsulfonyl)piperidin-4-one O-bis(4-fluorophenyl)methyl oxime]
≤ 1000 nM	CC(ON=C1CCN(S(=O)(=O)c2cccc(C(F)(F)F)c2)CC1)c1ccccc1 (centres unmarked) [Example 276, 1-(3-(Trifluoromethyl)phenylsulfonyl)piperidin-4-one O-1-phenylethyl oxime]
≤ 1000 nM	N#Cc1cccc(C(ON=C2CCN(S(=O)(=O)c3ccc(NC4CCCC4)nc3)CC2)C2CC2)c1 (centres unmarked) [Example 275, 3-((1-(6-(Cyclopentylamino)pyridin-3-ylsulfonyl)piperidin-4-ylideneaminooxy)(cyclopropyl)methyl)benzonitrile]
≤ 1000 nM	O=S(=O)(c1cccc(C(F)(F)F)c1)N1CCC(=NOC/C=C/c2ccccc2)CC1 [Example 368, 1-(3-(Trifluoromethyl)phenylsulfonyl)piperidin-4-one O-cinnamyl oxime]
≤ 1000 nM	O=C(CN1CCC(=NOCc2cccc(C(F)(F)F)c2)CC1)NCc1cc(C(F)(F)F)cc(C(F)(F)F)c1 [Example 329, N-(3,5-Bis(trifluoromethyl)benzyl)-2-(4-(3-(trifluoromethyl)benzyloxyimino)piperidin-1-yl)acetamide]
≤ 1000 nM	O=S(=O)(c1ccc(OC(F)(F)F)cc1)N1CCC(=NOCc2ccccc2-c2ccccc2)CC1 [Example 311, 1-(4-(Trifluoromethoxy)phenylsulfonyl)piperidin-4-one O-biphenyl-2-ylmethyl oxime]

The next lines start with the compound.

Compound	IC50
CCCNc1ccc(S(=O)(=O)N2CCC(=NOCc3cccc(C(F)(F)F)c3)CC2)cn1 [Example 99]	≤ 1000 nM
CN(C)c1cccc(CON=C2CCN(S(=O)(=O)c3ccc(OC(F)(F)F)cc3)CC2)c1 [Example 128, 1-(4-Trifluoromethoxybenzenesulfonyl)piperidin-4-one O-(3-dimethylaminobenzyl)oxime]	≤ 1000 nM
N#Cc1cc(CON=C2CCN(S(=O)(=O)c3ccc(OC(F)(F)F)cc3)CC2)ccn1 [Example 177, 4-((1-(4-(Trifluoromethoxy)phenylsulfonyl)piperidin-4-ylideneaminooxy)methyl)picolinonitrile]	≤ 1000 nM
O=S(=O)(c1ccc(Oc2ccccc2)nc1)N1CCC(=NOCc2cccc(C(F)(F)F)c2)CC1 [Example 101, 1-(6-Phenoxypyridine-3-sulfonyl)piperidin-4-one O-(3-trifluoromethylbenzyl)oxime]	≤ 1000 nM
O=S(=O)(c1ccc(Cl)nc1)N1CCC(=NOCc2cccc(C(F)(F)F)c2)CC1 [Example 64, 1-(6-Chloropyridine-3-sulfonyl)piperidin-4-one O-(3-trifluoromethylbenzyl)oxime]	≤ 1000 nM
O=S(=O)(c1ccc(OC(F)(F)F)cc1)N1CCC(=NOCc2cccc(C(F)(F)F)c2)CC1 [Example 58, 1-(4-Trifluoromethoxybenzenesulfonyl)piperidin-4-one O-(3-trifluoromethylbenzyl)oxime]	≤ 1000 nM
CCCCc1ccc(S(=O)(=O)N2CCC(=NOCc3cccc(OC)n3)CC2)cc1 [Example 76, 1-(4-Butylbenzenesulfonyl)piperidin-4-one O-(6-methoxypyridin-2-ylmethyl)oxime]	≤ 1000 nM
CCCCc1ccc(S(=O)(=O)N2CCC(=NOCC3CCCCC3)CC2)cc1 [Example 82, 1-(4-Butylbenzenesulfonyl)piperidin-4-one O-cyclohexylmethyloxime]	≤ 1000 nM
N#Cc1cccc(C(CO)ON=C2CCN(S(=O)(=O)c3ccc(OC(F)(F)F)cc3)CC2)c1 (centres unmarked) [Example 191, 3-(2-Hydroxy-1-(1-(4-(trifluoromethoxy)phenylsulfonyl)piperidin-4-ylideneaminooxy)ethyl)benzonitrile]	≤ 1000 nM
CCCCc1ccc(S(=O)(=O)N2CCC(=NOCc3ccccc3C(F)(F)F)CC2)cc1 [Example 78, 1-(4-Butylbenzenesulfonyl)piperidin-4-one O-(2-trifluoromethylbenzyl)oxime]	≤ 1000 nM
O=C(CCC(c1ccc(F)cc1)c1ccc(F)cc1)N1CCC(=NOCc2ccccc2)CC1 [Example 31, 1-[4,4-Bis-(4-fluorophenyl)butyryl]piperidin-4-one O-benzyloxime]	≤ 1000 nM
CCCCc1ccc(S(=O)(=O)N2CCC(=NOCc3cccc(Cl)c3)CC2)cc1 [Example 65, 1-(4-Butylbenzenesulfonyl)piperidin-4-one O-(3-chlorobenzyl)oxime]	≤ 1000 nM
O=C(CCN1CCC(c2ccccc2)CC1)N1CCC(=NOCc2cccc(C(F)(F)F)c2)CC1 [Example 47, 1-[3-(4-Phenylpiperidin-1-ylpropionyl]piperidin-4-one O-(3-trifluoromethylbenzyl)oxime hydrochloride]	≤ 1000 nM
Cn1c(CON=C2CCN(S(=O)(=O)c3ccc(OC(F)(F)F)cc3)CC2)nc2ccccc21 [Example 160, 1-(4-(Trifluoromethoxy)phenylsulfonyl)piperidin-4-one O-(1-methyl-1H-benzo[d]imidazol-2-yl)methyl oxime]	≤ 1000 nM
N#Cc1ccccc1CON=C1CCN(S(=O)(=O)c2ccc(OC(F)(F)F)cc2)CC1 [Example 120, 2-[1-(4-Trifluoromethoxybenzenesulfonyl)piperidin-4-ylideneaminooxymethyl]benzonitrile]	≤ 1000 nM
CCCCc1ccc(S(=O)(=O)N2CCC(=NOC(C)c3cccc(C(F)(F)F)c3)CC2)cc1 (centres unmarked) [Example 74, 1-(4-Butylbenzenesulfonyl)piperidin-4-one O-[1-(3-trifluoromethylphenyl)ethyl]oxime]	≤ 1000 nM
O=S(=O)(c1ccc(OC(F)(F)F)cc1)N1CCC(=NOC(c2ccc(F)cc2)c2ccc(F)cc2)CC1 [Example 119, 1-(4-Trifluoromethoxybenzenesulfonyl)piperidin-4-one O-[bis(4-fluorophenyl)methyl]oxime]	≤ 1000 nM
O=S(=O)(c1ccccc1F)N1CCC(=NOCc2cccc(C(F)(F)F)c2)CC1 [Example 63, 1-(2-Fluorobenzenesulfonyl)piperidin-4-one O-(3-trifluoromethylbenzyl)oxime]	≤ 1000 nM

Same assay, conditions: calcium mobilization in vitro assay, N-type calcium channel blockers

IC50	Compound
1100 nM	O=C(CC(=O)N1CCC(=NOC(c2ccc(F)cc2)c2ccc(F)cc2)CC1)Nc1ccc(F)cc1F [Example 227, 3-(4-(Bis(4-fluorophenyl)methoxyimino)piperidin-1-yl)-N-(2,4-difluorophenyl)-3-oxopropanamide]
